In one experiment the target is IMPα7ΔIBB (Homo sapiens, UniProt O60684). Briefly: FP assay, FITC-cNLS peptide binding to IMPα7ΔIBB. Conditions: FITC-Ahx-cNLS peptide, two-fold dilutions of recombinant IMPα7ΔIBB, tris-buffered saline, 200 μL, one site specific binding fit, mean ± SEM, three independent experiments, read-out: Kd (nM), a7. An excerpt: (§1) Recombinant IMPαΔIBB proteins were produced for structural analysis and assays to elucidate the binding profiles with PyV LTAs. For this, plasmid constructs encoding IMPα isoforms with an N‐terminal truncation removing the autoinhibitory IBB domain (ΔIBB) were synthesized (GenScript Biotech, Singapore). Codon optimized genes were designed with an N‐terminal 6xHis tag and TEV protease cleavage site and were cloned into the BamHI site of pET30a (GenScript Biotech, Singapore). […] For protein expression, the plasmids were transformed via heat shock into BL21(DE3)pLysS E. coli cells (Thermofisher Scientific, Monza, Italy) and grown in 1 L baffled flasks at room temperature using auto‐induction methods for 24–48 h (Studier, [2005]). […] Following this, the 6xHis tag was cleaved using TEV protease incubated overnight at 4°C, and then further purified via gel filtration using a Superdex 200 pg 26/600 column (Cytiva, Marlborough, USA) and tris‐buffered saline (50 mM tris, 125 mM sodium chloride, pH 8.0). […] Peak fractions were assessed for purity using SDS‐PAGE, then pooled and concentrated using 10 kDa cutoff centrifugal filters (Merck Millipore, Milan, Italy). All samples were aliquoted and stored at −80°C until further use.
(§2) Peptides corresponding to the cNLS regions of each PyV were synthesized for use in crystallography and binding assays. An automated CEM Liberty Blue solid phase peptide synthesizer generated each peptide with an added N‐terminal fluorescein isothiocyanate (FITC) tag. The reaction was performed using DIC and Oxyma coupling reagent and Fmoc deprotection with 20% (v/v) piperidine/DMF solution, all at 90°C. Following the final coupling, peptides were cleaved from the resin using a solution of TFA/TIPS/H2O (95/2.5/2.5) for 3 h. Purification was performed with HPLC and the peptides lyophilized to powder. […]
(§3) FP was used to quantify binding affinities of the HPyV LTA cNLSs for IMPαΔIBB proteins. […] The CLARIOstar Plus (BMG Labtech, Mornington, Australia) plate reader measured FP values, with each assay repeated in triplicate. […]

For the next experiment, the target named is IMPα1ΔIBB (Homo sapiens, UniProt P52292). In words: Fluorescence polarization (FP) assay, FITC-cNLS peptide binding to IMPα1ΔIBB. The note with it: FITC-Ahx-cNLS peptide, two-fold dilutions of recombinant IMPα1ΔIBB, tris-buffered saline, 200 μL, one site specific binding fit, mean ± SEM, three independent experiments, read-out: Kd (nM), a1.
From the text: as §1, §2, §3
(In general: Fluorescence polarisation rises when a labelled molecule tumbles more slowly, as on binding a larger partner.)

A further experiment addresses IMPα5ΔIBB (Homo sapiens, UniProt P52294). Briefly: FP assay, FITC-cNLS peptide binding to IMPα5ΔIBB. The note with it: FITC-Ahx-cNLS peptide, two-fold dilutions of recombinant IMPα5ΔIBB, tris-buffered saline, 200 μL, one site specific binding fit, mean ± SEM, three independent experiments, read-out: Kd (nM), a5.
From the text: as §1, §2, §3

A further experiment addresses IMPα3ΔIBB (Homo sapiens, UniProt O00629). Briefly: biochemical. In kind it is binding. Conditions: for Kd: SEM.
From the text: as §1
Peptides corresponding to the cNLS regions of each PyV were synthesized for use in crystallography and binding assays. An automated CEM Liberty Blue solid phase peptide synthesizer generated each peptide with an added N‐terminal fluorescein isothiocyanate (FITC) tag. The reaction was performed using DIC and Oxyma coupling reagent and Fmoc deprotection with 20% (v/v) piperidine/DMF solution, all at 90°C. Following the final coupling, peptides were cleaved from the resin using a solution of TFA/TIPS/H2O (95/2.5/2.5) for 3 h. Purification was performed with HPLC and the peptides lyophilized to powder. Prior to use, peptide stock solutions were resolubilized to 10 mM concentration, aliquoted, and stored at −20°C until use.
FP was used to quantify binding affinities of the HPyV LTA cNLSs for IMPαΔIBB proteins. Two‐fold dilutions of recombinant IMPαΔIBB proteins were titrated into black Fluotrac microplates (Greiner Bio‐One, Kremsmünster, Austria) and FITC‐cNLS peptides were added to each well before making up to a total volume of 200 μL with tris‐buffered saline. The gain adjustment was made using a well with no FITC‐NLS peptide. The CLARIOstar Plus (BMG Labtech, Mornington, Australia) plate reader measured FP values, with each assay repeated in triplicate. Binding curves to calculate K d and B max values were generated with the one site specific binding least square fit function of Prism 9 (GraphPad) software.

For experiment [1], the target named is T1, IMPα2ΔIBB (Mus musculus, UniProt P52293). In words: biochemical. In kind it is binding. Conditions: for Kd: SEM; for binding to IMPα2ΔIBB: FITC-labeled MCPyV LTA NLS peptides, EMSAs and FP assays, in words.
The target in experiment [2] is T1, IMPα2ΔIBB. In words: X-ray crystallography of cNLS peptides complexed with IMPα2ΔIBB. Format: binding. The note with it: FITC-cNLS peptide soaked or co-crystallized, in words. An excerpt:
Recombinant IMPαΔIBB proteins were produced for structural analysis and assays to elucidate the binding profiles with PyV LTAs. For this, plasmid constructs encoding IMPα isoforms with an N‐terminal truncation removing the autoinhibitory IBB domain (ΔIBB) were synthesized (GenScript Biotech, Singapore). Codon optimized genes were designed with an N‐terminal 6xHis tag and TEV protease cleavage site and were cloned into the BamHI site of pET30a (GenScript Biotech, Singapore). […] For protein expression, the plasmids were transformed via heat shock into BL21(DE3)pLysS E. coli cells (Thermofisher Scientific, Monza, Italy) and grown in 1 L baffled flasks at room temperature using auto‐induction methods for 24–48 h (Studier, [2005]). […] Peak fractions were assessed for purity using SDS‐PAGE, then pooled and concentrated using 10 kDa cutoff centrifugal filters (Merck Millipore, Milan, Italy). […]
X‐ray crystallography was employed to characterize HPyV LTA cNLSs bound to IMPα2ΔIBB. […] Protein interface interactions used in the structure figures were calculated using PDBePISA (Krissinel & Henrick, [2007]), with hydrogens removed in the PDB input models.

Experiment [3] deals with IMPαΔIBB isoforms. Briefly: Electrophoresis mobility shift assays (EMSAs) of FITC-cNLS peptides with IMPαΔIBB isoforms. In kind it is binding. Conditions: EMSA, 1.5% agarose gel, TB buffer pH 8.5, FITC-cNLS peptide, in words. A general note: A gel shift assay detects complexes by their altered migration in electrophoresis.
For experiment [4], the system named is IMPαΔIBB isoforms. Briefly: FP assays, summary over all IMPαΔIBB isoforms. In kind it is binding.
From the text: as §1, with “All samples were aliquoted and stored at −80°C until further use.” left out
as §3

Where a SMILES comes first, the peptide text is derived from it. Where no end group is shown, it is not given here. The star is where a group is joined. FITC = O=C1OC2(c3ccc(O)cc3Oc3cc(O)ccc32)c2ccc(NC(=S)*)cc21; Ahx = NCCCCCC(=O)O

Sequence of IMPα5ΔIBB (P52294 73-538, stated change not applied): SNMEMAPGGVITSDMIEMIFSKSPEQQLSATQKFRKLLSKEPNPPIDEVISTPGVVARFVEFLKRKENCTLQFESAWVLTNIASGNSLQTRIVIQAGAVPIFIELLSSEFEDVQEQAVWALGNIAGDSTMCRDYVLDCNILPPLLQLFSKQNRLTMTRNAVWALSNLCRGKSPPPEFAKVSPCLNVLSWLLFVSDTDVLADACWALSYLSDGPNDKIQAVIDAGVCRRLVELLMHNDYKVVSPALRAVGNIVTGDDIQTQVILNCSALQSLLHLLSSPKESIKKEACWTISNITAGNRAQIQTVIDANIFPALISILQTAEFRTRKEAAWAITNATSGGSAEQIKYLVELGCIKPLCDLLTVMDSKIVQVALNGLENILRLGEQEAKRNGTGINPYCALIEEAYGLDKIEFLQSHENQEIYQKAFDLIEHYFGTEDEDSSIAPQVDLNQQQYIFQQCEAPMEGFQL
Sequence of IMPα3ΔIBB (O00629 64-521, stated change not applied): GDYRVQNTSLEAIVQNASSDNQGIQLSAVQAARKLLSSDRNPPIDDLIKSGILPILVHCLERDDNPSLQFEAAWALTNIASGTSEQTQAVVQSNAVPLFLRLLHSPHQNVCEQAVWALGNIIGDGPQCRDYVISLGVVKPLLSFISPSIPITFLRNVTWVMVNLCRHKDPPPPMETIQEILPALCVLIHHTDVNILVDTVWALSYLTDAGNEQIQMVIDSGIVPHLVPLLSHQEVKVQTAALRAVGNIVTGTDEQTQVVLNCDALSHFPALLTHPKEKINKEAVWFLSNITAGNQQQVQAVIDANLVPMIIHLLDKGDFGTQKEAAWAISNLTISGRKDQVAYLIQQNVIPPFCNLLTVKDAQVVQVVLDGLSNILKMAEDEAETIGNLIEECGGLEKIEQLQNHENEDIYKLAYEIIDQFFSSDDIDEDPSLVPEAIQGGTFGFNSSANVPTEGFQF
Sequence of IMPα7ΔIBB (O60684 73-536, stated change not applied): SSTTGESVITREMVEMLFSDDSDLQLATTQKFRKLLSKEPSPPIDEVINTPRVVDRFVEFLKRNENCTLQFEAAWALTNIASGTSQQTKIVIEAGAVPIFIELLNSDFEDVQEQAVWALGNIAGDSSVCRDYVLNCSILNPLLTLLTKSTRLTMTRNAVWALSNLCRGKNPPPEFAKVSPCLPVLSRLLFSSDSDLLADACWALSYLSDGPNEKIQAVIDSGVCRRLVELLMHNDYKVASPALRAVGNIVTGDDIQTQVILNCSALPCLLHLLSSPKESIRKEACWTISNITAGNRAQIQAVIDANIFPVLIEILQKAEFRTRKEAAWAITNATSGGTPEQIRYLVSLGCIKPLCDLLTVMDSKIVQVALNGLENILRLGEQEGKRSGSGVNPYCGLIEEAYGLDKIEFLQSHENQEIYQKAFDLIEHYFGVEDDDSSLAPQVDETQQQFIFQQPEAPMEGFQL

In general, Kd refers to the equilibrium constant for the complex coming apart. On to `CSCC[C@H](NC(=O)CCCCCNC(=S)Nc1ccc2c(c1)C(=O)OC21c2ccc(O)cc2Oc2cc(O)ccc21)C(=O)N[C@@H](Cc1ccccc1)C(=O)N[C@@H](C)C(=O)N[C@@H](CO)C(=O)N[C@@H](CC(=O)O)C(=O)N[C@@H](CC(=O)O)C(=O)N[C@@H](CCC(=O)O)C(=O)N[C@@H](CC(N)=O)C(=O)N[C@H](C(=O)NCC(=O)N[C@@H](CO)C(=O)N[C@@H](CCC(N)=O)C(=O)N[C@@H](Cc1c[nH]cn1)C(=O)N[C@@H](CO)C(=O)N[C@H](C(=O)N1CCC[C@H]1C(=O)N1CCC[C@H]1C(=O)N[C@@H](CCCCN)C(=O)N[C@@H](CCCCN)C(=O)N[C@@H](CCCCN)C(=O)N[C@@H](CCCCN)C(=O)N[C@@H](CCCCN)C(=O)N[C@H](C(=O)O)C(C)C)[C@@H](C)O)[C@@H](C)O` [JCPyV] ({FITC-Ahx}-MFASDDENTGSQHSTPPKKKKKV-OH; C-terminus assumed), for which the Kd was found to be 103 ± 1.1 nM on IMPα7ΔIBB; 76.9 ± 2 nM at IMPα1ΔIBB; 271 ± 4.1 nM at IMPα5ΔIBB; 0.119 ± 0.0028 µM on IMPα3ΔIBB; 0.0896 ± 0.003 µM on IMPα2ΔIBB [1].

As to `C[C@H](NC(=O)[C@H](Cc1c[nH]cn1)NC(=O)[C@H](CCCCN)NC(=O)[C@H](CCCCN)NC(=O)[C@H](CCCCN)NC(=O)[C@@H]1CCCN1C(=O)[C@@H]1CCCN1C(=O)[C@@H](NC(=O)[C@H](C)NC(=O)[C@H](CCC(N)=O)NC(=O)[C@H](CO)NC(=O)[C@H](CS)NC(=O)[C@H](CO)NC(=O)[C@@H]1CCCN1C(=O)[C@H](CCC(=O)O)NC(=O)[C@H](CCC(=O)O)NC(=O)[C@H](CCC(=O)O)NC(=O)[C@@H]1CCCN1C(=O)[C@H](C)NC(=O)[C@H](CO)NC(=O)[C@H](CCCNC(=N)N)NC(=O)[C@H](CCCCN)NC(=O)CCCCCNC(=S)Nc1ccc2c(c1)C(=O)OC21c2ccc(O)cc2Oc2cc(O)ccc21)[C@@H](C)O)C(=O)O` [KIPyV] ({FITC-Ahx}-KRSAPEEEPSCSQATPPKKKHA-OH; C-terminus assumed), the Kd at IMPα7ΔIBB was 8 ± 1 nM; at IMPα1ΔIBB, 22 ± 1 nM; at IMPα5ΔIBB, 10 ± 1 nM; on IMPα3ΔIBB it was 0.011 ± 0.002 µM; at IMPα2ΔIBB [1], 0.014 ± 0.003 µM.

With `C[C@H](NC(=O)[C@H](CCC(N)=O)NC(=O)[C@H](CO)NC(=O)[C@H](CS)NC(=O)[C@H](CCC(N)=O)NC(=O)[C@@H]1CCCN1C(=O)[C@H](CCC(=O)O)NC(=O)[C@H](CCC(=O)O)NC(=O)[C@H](CC(=O)O)NC(=O)[C@H](CC(=O)O)NC(=O)[C@H](CCC(=O)O)NC(=O)[C@H](CCCNC(=N)N)NC(=O)[C@@H](NC(=O)[C@H](CCCNC(=N)N)NC(=O)[C@H](CCCCN)NC(=O)CCCCCNC(=S)Nc1ccc2c(c1)C(=O)OC21c2ccc(O)cc2Oc2cc(O)ccc21)[C@@H](C)O)C(=O)N[C@H](C(=O)N1CCC[C@H]1C(=O)N1CCC[C@H]1C(=O)N[C@@H](CCCCN)C(=O)N[C@@H](CCCCN)C(=O)N[C@@H](CCCCN)C(=O)N[C@@H](CCCCN)C(=O)N[C@@H](CC(=O)O)C(=O)O)[C@@H](C)O` [WUPyV] ({FITC-Ahx}-KRTREDDEEPQCSQATPPKKKKD-OH; C-terminus assumed), the Kd at IMPα7ΔIBB came out at 0.1 ± 0.1 nM; on IMPα1ΔIBB, 0.2 ± 0.02 nM; at IMPα5ΔIBB, 0.9 ± 0.04 nM; on IMPα3ΔIBB it was 0.0003 ± 3e-05 µM; on IMPα2ΔIBB [1], 0.0361 ± 0.0022 µM.

In the case of “{FITC-Ahx}-MFASDDENTGSQHSTPPKKKKKV [JCPyV LTA NLS peptide, FITC-Ahx-labelled synthetic peptide of JCPyV LTA monopartite cNLS, residues 111-133]”, at IMPα2ΔIBB [2], the “binding mode in crystal structure with IMPα2ΔIBB” value is listed as “bound as a monopartite cNLS at the major site of IMPα2ΔIBB”. In addition, in the experiment with IMPαΔIBB isoforms [3], the “co-migration with IMPαΔIBB isoforms” value is on record as “co‐migrated with all IMPαΔIBB isoforms”.

In the case of “{FITC-Ahx}-PFSRKRTFGGS [MCPyV NLSm K280T]”, the “binding to IMPα2ΔIBB” value on IMPα2ΔIBB [1] was “completely abrogated IMPα2ΔIBB binding”.

With “{FITC-Ahx}-PFSRKRTFGGSRSSASSASSASFTSTPPKPKKNRE [MCPyV NLSbip K280T]”, at IMPα2ΔIBB [1], the “binding to IMPα2ΔIBB” value is recorded as “completely abrogated IMPα2ΔIBB binding to MCPyV LTA NLSm but not NLSbip”.

Regarding “{FITC-Ahx}-SSSDEEEPASSASVNPEEGCSQDSKYSATPPKQKKPN [HPyV7 LTA cNLS peptide]”, at IMPα3ΔIBB (in vitro, FP, in words), the “binding to IMPα3ΔIBB” value is reported as “weakly binding IMPα3ΔIBB”. The IMPα isoform specificity entry with IMPαΔIBB isoforms [4] (in words) is reported as “selectively bound to IMPα3ΔIBB”. For the same molecule, at IMPαΔIBB isoforms [4] (span over IMPα1, 2, 3, 5, 7 ΔIBB), the “Kds for IMPαΔIBB isoforms” value is listed as “too weak to allow estimation of a Kd”. For the same molecule, the “co-migration with IMPαΔIBB isoforms” value in the experiment on IMPαΔIBB isoforms [3] is listed as “a very small fraction of HPyV7 LTA monopartite cNLS co‐migrated with IMPαΔIBB isoforms”.
